Measurements: patent US5911993A, “Homeopathic antidiabetic treatment” (priority 1997, dated 1999)

How the values were obtained:
diabetes models = assay: blood sugar in mice diabetes models made by injecting Tetraoxymidine; type: in vivo, Kumming species mice; conditions: for Blood sugar value, After Use / Reducer rate (-.increment.X%) / Blood sugar value, Before Use: 11 female mice, 0.2 ml/mouse/day; for Blood sugar value, After Use: 6 days after filling the gastric, 0.5 mg/ml powder; for Reducer rate (-.increment.X%) / sequence of reducing blood sugar: 6 days; for Reducer rate (-.increment.X%): 0.5 mg/ml; for Blood sugar value, Before Use: baseline before 0.5 mg/ml powder
Experimental: Then, an animal experiment was conducted using a powder and concentrated powder from the methods of steps of FIGS. 2 through 5. The experimental method is as follows: Separate 88 Kumming species mice randomly to reference group, DSP group, DAS group, DAS 1, DAS 2, and DAS 3 groups, Damicron group, and Youjiangtang group, 11 female mice in each group. Use the mice to make diabetes models by injecting Tetraoxymidine, and compare experiment group with known DSP, Damicron, Youjiangtang (as the standard sample). The dose for every group: 0.5 mg/ml powder, every day 0.2 ml for every mouse, and every day 0.2 ml sodium chloride solution for the reference group only. Take blood to measure blood sugar value 6 days after filling the gastric.

[1] = system: non-insulin dependent type diabetes; assay: clinical experiments on humans, non-insulin dependent type diabetes; conditions: human, in vivo
Experimental: (§1) Clinical experiments were also conducted on humans from various provinces of China. Five examples of these clinical experiments are as follows (in each experiment each tablet had 20 mg of non-concentrated powder of Echevaria glauca, Sinocrassula berger, Crassulaceae according to the invention): […]

[2] = system: polychromatic erythrocytes; assay: Mouse marrow micronucleus experiment; type: in vivo, Kumming species mouse
Experimental: 2 Mouse marrow micronucleus experiment:
Adopting first class qualified Kumming species mouse (provided by animal house of CMA) whose weight are 24~30 g. Making 3 DAS dose groups as 10, 600, 1200 mg/kg plus a positive (cyclophosphamide 30 mg/kg, inject to stomach 2 times) and a negative reference group, 10 mice for each group, half male and half female. Filling the gastric of each mouse two days continuously, and executing the mouse 6 hours after last filling, taking sternum marrow to make thin section as routine, coloring to red. Counting 1000 polychromatic erythrocytes for each mouse, observing polychromatic erythrocytes which contains micronucleus and calculating the rate of micronucleus cell.

sperm = assay: Mouse sperm terata experiment; type: in vivo, Kumming species mouse
Experimental: 3 Mouse sperm terata experiment:
Adopting first class qualified Kumming species mouse (provided by animal house of CMA) whose weight are 27~36 g. Making 3 DAS dose groups as 10, 600, 1200 mg/kg plus a positive (cyclophosphamide 30 mg/kg, inject to stomach 5 days) and a negative reference group. Filling the gastric of each mouse for each of 5 days continuously, and executing the mouse at 35th day after first filling, taking epididymis of both sides, coloring, observing 1000 sperms for each mouse and calculating the ratio of sperm mutation.

[3] = system: insulin dependent type diabetes; assay: clinical experiment on human, insulin dependent type diabetes; type: in vivo, humans; conditions: Example 2, 20 units insulin injected
Experimental: as §1

Row | Compound | Blood sugar value, After Use (diabetes models) | Reducer rate (-.increment.X%) (diabetes models) | Blood sugar value, Before Use (diabetes models) | sequence of reducing blood sugar (diabetes models) | further results
1 | Cc1ccc(S(=O)(=O)NC(=O)NN2CC3CCCC3C2)cc1 (stereo not drawn) [DMC] | 110.50 mg % | 42.55% | 292.35 mg % | DAS2 >DAS3 >DAS1>DSP>YJT>DMC | –
2 | COc1ccc(Cl)cc1C(=O)NCCc1ccc(S(=O)(=O)NC(=O)NC2CCCCC2)cc1 [YJT] | 162.28 mg % | 45.28% | 296.38 mg % | DAS2 >DAS3 >DAS1>DSP>YJT>DMC | side effect (a sign of low blood sugar) [1]: became dizzy
3 | O=P1(N(CCCl)CCCl)NCCCO1 (stereo not drawn) [cyclophosphamide] | – | – | – | – | Ratio of cell micronucleus ([2]; Positive R.G., 30 mg/kg, 2 times): 45.3%; P vs negative group, micronucleus ([2]; positive reference group): < 0.01; Variant rate (sperm; Positive R.G., 30 mg/kg, 5 days): 61.9%; Variant sperm number (sperm; Positive R.G., 30 mg/kg, 5 days, 10000 sperm observed): 619; P vs negative group, sperm terata (sperm; positive reference group): < 0.01
4 | insulin | – | – | – | – | high or low blood sugar before DAS [3]: became high or low blood sugar occasionally
